Experiments:
Assay type in all cases: cell-based, Yersinia pseudotuberculosis
[1] = tested on: luciferase light signal from pIB102EL (yopE-luxAB, wild-type); assay: microbe, parasite or virus in culture; details: for Inhibition (%) of the luciferase light signal: strain pIB102EL, Table 2C; for inhibition at 5 µM / inhibition at 10 µM / inhibition at 20 µM / inhibition at 50 µM / inhibition at 100 µM: Yersinia pseudotuberculosis, read-out: Inhibition (%) of the luciferase light signal
[2] = tested on: reporter gene signal from pIB102FL (lcrF-luxAB)
[3] = tested on: reporter gene signal from pIB102FΔhlhL (lcrFΔhlh-luxAB)
[4] = tested on: luciferase light signal from pIB29EL (yopE-luxAB); assay: microbe, parasite or virus in culture
[5] = tested on: luciferase light signal from pIB102AL (luxAB downstream of the promoter for YerA)
[6] = tested on: Yop secretion from the wild-type strain pIB102EL
[7] = 10 μM, strain pIB29EL, Table 2C
[8] = 20 μM, strain pIB29EL, Table 2C
[9] = 50 μM, strain pIB29EL, Table 2C
[10] = 100 μM, strain pIB29EL, Table 2C

SMILES: O=C(N/N=C/c1ccc(O)c(O)c1O)c1ccccc1 [Compound 36]
- Inhibition (%) of the luciferase light signal ([1]; 5 μM): 5%
- Inhibition (%) of the luciferase light signal ([1]; 10 μM): 10%
- Inhibition (%) of the luciferase light signal ([1]; 20 μM): 15%
- Inhibition (%) of the luciferase light signal ([1]; 50 μM): 24%
- Inhibition (%) of the luciferase light signal ([1]; 100 μM): 54%

SMILES: O=C(N/N=C/c1cc(Br)cc(Br)c1O)c1ccc([N+](=O)[O-])cc1 [Compound 3]
- Effect on reporter gene signal (in words) [2]: enhance the reporter gene signal
- Effect on reporter gene signal (in words) [3]: more than doubled
- Inhibition (%) of the luciferase light signal ([4]; 10 μM, pIB29EL, Table 2A): 12%
- Inhibition (%) of the luciferase light signal ([4]; 20 μM, pIB29EL, Table 2A): 48%
- Inhibition (%) of the luciferase light signal ([4]; 50 μM, pIB29EL, Table 2A): 85%
- Inhibition (%) of the luciferase light signal ([4]; 100 μM, pIB29EL, Table 2A): 86%
- Potency within the class of acylated hydrazones of salicylic aldehydes from primary screening (in words) ([4]; pIB29EL): most potent
- Selectivity between pIB102EL (YopE promoter) and control strain pIB102AL (in words) [5]: stronger inhibitory effect on the wild-type strain pIB102EL
- Inhibition of Yop secretion into the surrounding medium (in words) ([6]; supernatant after 3 h at 37° C., Western analysis): efficiently inhibits Yop secretion in a dose dependent manner
- Total Yop content, bacteria and surrounding media (in words) ([6]; various concentrations incl. 50 and 100 μM lanes, FIG. 6B): Yops can be observed at concentrations that completely inhibit secretion

SMILES: O=C(N/N=C/c1cc(I)cc(I)c1O)c1ccc([N+](=O)[O-])cc1 [Compound 41]
- Inhibition (%) of the luciferase light signal ([1]; 5 μM): 3%
- Inhibition (%) of the luciferase light signal ([1]; 10 μM): 13%
- Inhibition (%) of the luciferase light signal ([1]; 20 μM): 33%
- Inhibition (%) of the luciferase light signal ([1]; 50 μM): 48%
- Inhibition (%) of the luciferase light signal ([1]; 100 μM): 44%

SMILES: O=C(N/N=C/c1ccc(O)cc1O)c1ccc([N+](=O)[O-])cc1 [Compound 38]
- Inhibition (%) of the luciferase light signal ([1]; 5 μM): 4%
- Inhibition (%) of the luciferase light signal ([1]; 10 μM): 10%
- Inhibition (%) of the luciferase light signal ([1]; 20 μM): 13%
- Inhibition (%) of the luciferase light signal ([1]; 50 μM): 23%
- Inhibition (%) of the luciferase light signal ([1]; 100 μM): 36%

SMILES: O=C(N/N=C/c1cc(Cl)cc(Cl)c1O)c1ccccc1 [Compound 35]
- Inhibition (%) of the luciferase light signal ([1]; 5 μM): 0%
- Inhibition (%) of the luciferase light signal ([1]; 10 μM): 0%
- Inhibition (%) of the luciferase light signal ([1]; 20 μM): 5%
- Inhibition (%) of the luciferase light signal ([1]; 50 μM): 21%
- Inhibition (%) of the luciferase light signal ([1]; 100 μM): 43%

SMILES: CC(=NNC(=O)c1cccnc1)c1cc(Br)cc(Br)c1O [Compound 39]
- Inhibition (%) of the luciferase light signal ([1]; 5 μM): 0%
- Inhibition (%) of the luciferase light signal ([1]; 10 μM): 3%
- Inhibition (%) of the luciferase light signal ([1]; 20 μM): 4%
- Inhibition (%) of the luciferase light signal ([1]; 50 μM): 13%
- Inhibition (%) of the luciferase light signal ([1]; 100 μM): 24%

SMILES: CCOc1cccc(/C=N/NC(=O)c2ccc(Cl)cc2)c1O [Compound 43]
- Inhibition (%) of the luciferase light signal ([1]; 5 μM): 0%
- Inhibition (%) of the luciferase light signal ([1]; 10 μM): 6%
- Inhibition (%) of the luciferase light signal ([1]; 20 μM): 12%
- Inhibition (%) of the luciferase light signal ([1]; 50 μM): 22%
- Inhibition (%) of the luciferase light signal ([1]; 100 μM): 34%

SMILES: NC(=O)C(=O)N/N=C/c1cc(Br)ccc1O [Compound 22]
- inhibition at 5 µM [1]: 0%
- inhibition at 10 µM [1]: 4%
- inhibition at 20 µM [1]: 24%
- inhibition at 50 µM [1]: 66%
- inhibition at 100 µM [1]: 82%

SMILES: CCN(CC)c1ccc(/C=N/NC(=O)c2cccnc2)c(O)c1 [Compound 37]
- inhibition at 5 µM [1]: 5%
- inhibition at 10 µM [1]: 8%
- inhibition at 20 µM [1]: 21%
- inhibition at 50 µM [1]: 30%
- inhibition at 100 µM [1]: 32%

SMILES: CCCCCCc1cc(/C=N/NC(=O)c2ccc([N+](=O)[O-])cc2)c(O)cc1O [Compound 11]
- Inhibition (%) of the luciferase light signal ([4]; 10 μM, pIB29EL, Table 2A): 30%
- Inhibition (%) of the luciferase light signal ([4]; 20 μM, pIB29EL, Table 2A): 42%
- Inhibition (%) of the luciferase light signal ([4]; 50 μM, pIB29EL, Table 2A): 69%
- Inhibition (%) of the luciferase light signal ([4]; 100 μM, pIB29EL, Table 2A): 80%

SMILES: O=C(Nc1cc(Cl)ccc1F)c1cc(I)cc(I)c1O [Compound 48]
- Inhibition (%) of the luciferase light signal ([4]; 5 μM, strain pIB29EL, Table 2C): 36%
- Inhibition (%) of the luciferase light signal [4, 7]: 75%
- Inhibition (%) of the luciferase light signal [4, 8]: 88%
- Inhibition (%) of the luciferase light signal [4, 9]: 89%
- Inhibition (%) of the luciferase light signal [4, 10]: 88%

SMILES: O=C(N/N=C/c1cc(Br)ccc1O)c1cccnc1 [Compound 42]
- Inhibition (%) of the luciferase light signal ([1]; 5 μM): 0%
- Inhibition (%) of the luciferase light signal ([1]; 10 μM): 9%
- Inhibition (%) of the luciferase light signal ([1]; 20 μM): 16%
- Inhibition (%) of the luciferase light signal ([1]; 50 μM): 49%
- Inhibition (%) of the luciferase light signal ([1]; 100 μM): 59%

SMILES: O=C(Nc1ccc(Cl)c(Cl)c1)c1ccccc1NS(=O)(=O)c1cccc2nsnc12 [Compound 59]
- Inhibition (%) of the luciferase light signal ([4]; 5 μM, strain pIB29EL, Table 2C): 0%
- Inhibition (%) of the luciferase light signal [4, 7]: 0%
- Inhibition (%) of the luciferase light signal [4, 8]: 0%
- Inhibition (%) of the luciferase light signal [4, 9]: 7%
- Inhibition (%) of the luciferase light signal [4, 10]: 10%

SMILES: Nc1ccc(C(=O)N/N=C/c2c(O)ccc3ccccc23)cc1 [Compound 44]
- Inhibition (%) of the luciferase light signal ([1]; 5 μM): 3%
- Inhibition (%) of the luciferase light signal ([1]; 10 μM): 10%
- Inhibition (%) of the luciferase light signal ([1]; 20 μM): 15%
- Inhibition (%) of the luciferase light signal ([1]; 50 μM): 23%
- Inhibition (%) of the luciferase light signal ([1]; 100 μM): 30%

SMILES: CC(C)(C)c1ccc(NC(=O)c2cc(I)cc(I)c2O)cc1 [Compound 29]
- inhibition at 5 µM ([4]; Yersinia pseudotuberculosis, read-out: Inhibition (%) of the luciferase light signal, 5 μM, strain pIB29EL, Table 2C): 19%
- inhibition at 10 µM ([4]; Yersinia pseudotuberculosis, read-out: Inhibition (%) of the luciferase light signal, 10 μM, strain pIB29EL, Table 2C): 18%
- inhibition at 20 µM ([4]; Yersinia pseudotuberculosis, read-out: Inhibition (%) of the luciferase light signal, 20 μM, strain pIB29EL, Table 2C): 21%
- inhibition at 50 µM ([4]; Yersinia pseudotuberculosis, read-out: Inhibition (%) of the luciferase light signal, 50 μM, strain pIB29EL, Table 2C): 30%
- inhibition at 100 µM ([4]; Yersinia pseudotuberculosis, read-out: Inhibition (%) of the luciferase light signal, 100 μM, strain pIB29EL, Table 2C): 28%

SMILES: CCn1cc(C(=O)O)c(=O)c2ccc(C)nc21 [Nalidixic acid, reference compound]
- IC50 ([4]; Yersinia pseudotuberculosis, read-out: IC50 (concentration resulting in 50% reduction of luciferase light emission)): 15 µM
- Inhibition of light-emission (in words) ([4]; known antibiotics, pIB29EL): dose-dependent inhibition of light-emission

SMILES: CC(=O)Oc1c(Br)cc(Br)cc1C(=O)Nc1ccccc1F [Compound 19]
- Inhibition (%) of the luciferase light signal ([4]; 10 μM, pIB29EL, Table 2A): 0%
- Inhibition (%) of the luciferase light signal ([4]; 20 μM, pIB29EL, Table 2A): 0%
- Inhibition (%) of the luciferase light signal ([4]; 50 μM, pIB29EL, Table 2A): 45%
- Inhibition (%) of the luciferase light signal ([4]; 100 μM, pIB29EL, Table 2A): 70%

SMILES: CC(=O)Oc1c(I)cc(I)cc1C(=O)Nc1ccccc1 [Compound 18]
- Inhibition (%) of the luciferase light signal ([4]; 10 μM, pIB29EL, Table 2A): 11%
- Inhibition (%) of the luciferase light signal ([4]; 20 μM, pIB29EL, Table 2A): 51%
- Inhibition (%) of the luciferase light signal ([4]; 50 μM, pIB29EL, Table 2A): 70%
- Inhibition (%) of the luciferase light signal ([4]; 100 μM, pIB29EL, Table 2A): 62%

SMILES: CC(=O)Oc1ccc(I)cc1C(=O)Nc1ccc(Cl)cc1 [Compound 16]
- Inhibition (%) of the luciferase light signal ([4]; 5 μM (first of two columns headed 5), pIB29EL, Table 2B): 65%
- Inhibition (%) of the luciferase light signal ([4]; 5 μM (second of two columns headed 5), pIB29EL, Table 2B): 97%
- Inhibition (%) of the luciferase light signal ([4]; 10 μM, pIB29EL, Table 2B): 98%
- Inhibition (%) of the luciferase light signal ([4]; 20 μM, pIB29EL, Table 2B): 97%

SMILES: O=C(N/N=C/c1ccc(O)c(O)c1O)c1ccco1 [Compound 34]
- inhibition at 5 µM [1]: 1%
- inhibition at 10 µM [1]: 5%
- inhibition at 20 µM [1]: 10%
- inhibition at 50 µM [1]: 26%
- inhibition at 100 µM [1]: 56%

SMILES: CC(=O)Oc1c(I)cc(I)cc1C(=O)Nc1ccc(F)cc1 [Compound 17]
- Inhibition (%) of the luciferase light signal ([4]; 10 μM, pIB29EL, Table 2A): 36%
- Inhibition (%) of the luciferase light signal ([4]; 20 μM, pIB29EL, Table 2A): 42%
- Inhibition (%) of the luciferase light signal ([4]; 50 μM, pIB29EL, Table 2A): 89%
- Inhibition (%) of the luciferase light signal ([4]; 100 μM, pIB29EL, Table 2A): 90%

SMILES: CC(=O)Oc1ccccc1C(=O)Nc1ccc(Cl)cc1 [Compound 60]
- Inhibition (%) of the luciferase light signal ([4]; 5 μM, strain pIB29EL, Table 2C): 0%
- Inhibition (%) of the luciferase light signal [4, 7]: 21%
- Inhibition (%) of the luciferase light signal [4, 8]: 65%
- Inhibition (%) of the luciferase light signal [4, 9]: 89%
- Inhibition (%) of the luciferase light signal [4, 10]: 89%

SMILES: O=C(Nc1ccc(Cl)cc1)c1cc(I)ccc1O [Compound 23]
- Inhibition (%) of the luciferase light signal ([4]; 5 μM, strain pIB29EL, Table 2C): 70%
- Inhibition (%) of the luciferase light signal [4, 7]: 75%
- Inhibition (%) of the luciferase light signal [4, 8]: 83%
- Inhibition (%) of the luciferase light signal [4, 9]: 80%
- Inhibition (%) of the luciferase light signal [4, 10]: 78%

SMILES: O=C(Nc1ccc(Cl)cc1)c1ccccc1NS(=O)(=O)c1cccc2nsnc12 [Compound 58]
- Inhibition (%) of the luciferase light signal ([4]; 5 μM, strain pIB29EL, Table 2C): 4%
- Inhibition (%) of the luciferase light signal [4, 7]: 5%
- Inhibition (%) of the luciferase light signal [4, 8]: 10%
- Inhibition (%) of the luciferase light signal [4, 9]: 11%
- Inhibition (%) of the luciferase light signal [4, 10]: 15%

SMILES: O=C(Nc1cccc(Cl)c1)c1cc(Cl)ccc1NS(=O)(=O)c1cccc2nsnc12 [Compound 57]
- Inhibition (%) of the luciferase light signal ([4]; 5 μM, strain pIB29EL, Table 2C): 0%
- Inhibition (%) of the luciferase light signal [4, 7]: 7%
- Inhibition (%) of the luciferase light signal [4, 8]: 26%
- Inhibition (%) of the luciferase light signal [4, 9]: 49%
- Inhibition (%) of the luciferase light signal [4, 10]: 55%

SMILES: Nc1ccc(C(=O)N/N=C/c2cc(I)cc(I)c2O)cc1 [Compound 40]
- Inhibition (%) of the luciferase light signal ([1]; 5 μM): 3%
- Inhibition (%) of the luciferase light signal ([1]; 10 μM): 11%
- Inhibition (%) of the luciferase light signal ([1]; 20 μM): 18%
- Inhibition (%) of the luciferase light signal ([1]; 50 μM): 41%
- Inhibition (%) of the luciferase light signal ([1]; 100 μM): 50%

SMILES: O=C(Nc1ccc([N+](=O)[O-])cc1Cl)c1cc(Cl)ccc1O [Compound 55]
- Inhibition (%) of the luciferase light signal ([4]; 5 μM, strain pIB29EL, Table 2C): 85%
- Inhibition (%) of the luciferase light signal [4, 7]: 96%
- Inhibition (%) of the luciferase light signal [4, 8]: 96%
- Inhibition (%) of the luciferase light signal [4, 9]: 94%
- Inhibition (%) of the luciferase light signal [4, 10]: 94%

— US7351861B2 (priority 2002, dated 2008)
